Data as given in patent US7781445B2, “Synthesis of indenoisoquinoliniums and methods of use” (Purdue Research Foundation, priority 2005, dated 2010).
Read-outs that look alike come from different tables or passages of the source.

Key:
MDA-MB-435 = experiment: COMPARE screening (NCI), GI50 in MDA-MB-435
Excerpt: (§1) This in vitro prescreening system is based on the measurement of anticancer cytotoxicity against human cancer cell line panels consisting of approximately 60 cell lines of major human cancers (including leukemia, and slower growing tumor cells such as lung, colon, breast, skin, kidney, etc.) and is referred hereinafter as “COMPARE” screening.
(§2) COMPARE screening. The compounds described herein were examined for antiproliferative activity against the human cancer cell lines in the National Cancer Institute screen (COMPARE screening), in which the activity of each compound was evaluated with approximately 55 different cancer cell lines of diverse tumor origins. […] Therefore, the MGM value represents an overall assessment of toxicity of the compound across numerous cell lines.

[1] = test system: all human cancer cell lines successfully tested (approximately 55); experiment: COMPARE screening, mean graph midpoint (MGM); assay type: cell-based; conditions: average GI50 over all cell lines tested, values outside 10^-8 to 10^-4 molar taken as the limits, read-out: MGM (mean graph midpoint for growth inhibition); for MGM (mean GI50 across cell lines): Homo sapiens
Excerpt: as §1, §2

SN12C = experiment: COMPARE screening (NCI), GI50 in SN12C
Excerpt: as §1, §2

DU-145 = experiment: COMPARE screening (NCI), GI50 in DU-145
Excerpt: as §1, §2

SF-539 = experiment: COMPARE screening (NCI), GI50 in SF-539; conditions: Homo sapiens, read-out: Cytotoxicity GI50, CNS SF-539
Excerpt: as §1, §2

HCT-116 = experiment: COMPARE screening (NCI), GI50 in HCT-116
Excerpt: as §1, §2

HOP-62 = experiment: COMPARE screening (NCI), GI50 in HOP-62
Excerpt: as §1, §2

UACC-62 = experiment: COMPARE screening (NCI), GI50 in UACC-62
Excerpt: as §1, §2

topoisomerase I = target: T1, topoisomerase I (Homo sapiens, UniProt P11387); experiment: Topoisomerase I-mediated DNA cleavage, 3'-end-labeled 161 bp pBluescript SK(-) fragment; assay type: biochemical; conditions: for top1-mediated DNA cleavage band at site 37 / top1-mediated DNA cleavage band at site 44: FIG. 1; for top1-mediated DNA cleavage band at site 37: cleavage site 37; for top1-mediated DNA cleavage band at site 44: cleavage site 44; for Top 1 Cleavage: tested at concentrations ranging up to 10 μM, semi-quantitative relative to compound A
T1 sequence (P11387 1-765): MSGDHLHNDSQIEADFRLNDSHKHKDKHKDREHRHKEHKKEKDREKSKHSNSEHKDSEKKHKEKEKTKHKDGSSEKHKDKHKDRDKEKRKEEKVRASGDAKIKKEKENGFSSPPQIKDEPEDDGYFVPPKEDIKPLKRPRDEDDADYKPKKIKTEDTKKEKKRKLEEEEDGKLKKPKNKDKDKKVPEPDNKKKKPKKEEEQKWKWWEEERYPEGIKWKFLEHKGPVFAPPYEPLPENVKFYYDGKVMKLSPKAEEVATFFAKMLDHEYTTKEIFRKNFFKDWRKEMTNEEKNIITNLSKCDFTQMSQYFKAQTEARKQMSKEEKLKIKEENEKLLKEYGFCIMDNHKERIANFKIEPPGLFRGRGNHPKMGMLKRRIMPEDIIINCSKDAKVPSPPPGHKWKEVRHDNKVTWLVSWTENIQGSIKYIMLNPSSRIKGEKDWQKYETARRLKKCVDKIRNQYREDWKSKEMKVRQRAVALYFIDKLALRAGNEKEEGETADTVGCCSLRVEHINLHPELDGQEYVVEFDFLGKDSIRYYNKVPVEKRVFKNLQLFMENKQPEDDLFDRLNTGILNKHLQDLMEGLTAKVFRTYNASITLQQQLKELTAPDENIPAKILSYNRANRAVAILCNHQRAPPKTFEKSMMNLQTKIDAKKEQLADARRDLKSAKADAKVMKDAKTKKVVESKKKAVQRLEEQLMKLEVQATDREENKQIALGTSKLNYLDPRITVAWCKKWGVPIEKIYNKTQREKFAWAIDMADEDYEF
Method: The assays were carried out at room temperature for 30 min and stopped by adding 0.5% SDS. […] Topoisomerase I was present in all reaction mixtures except for the one corresponding to the first lane.
Induction of DNA cleavage.
Labeling reactions were followed by phenol-chloroform extraction and ethanol precipitation. […] Reactions were terminated by adding 0.5% SDS.
DNA Cleavage Semiquantitative Analysis. […] The rubberband baseline correction was applied with band detection sensitivity set at 90.

OVCAR-3 = experiment: COMPARE screening (NCI), GI50 in OVCAR-3
Excerpt: as §1, §2

[2] = Homo sapiens, SN12C, read-out: Cytotoxicity GI50, renal SN12C, renal, SN12C, concentration corresponding to 50% growth inhibition
[3] = Homo sapiens, DU-145, read-out: Cytotoxicity GI50, prostate DU-145, prostate, DU-145, concentration corresponding to 50% growth inhibition
[4] = Homo sapiens, MDA-MB-435, read-out: Cytotoxicity GI50, breast MDA-MB-435, breast, MDA-MB-435, concentration corresponding to 50% growth inhibition
[5] = Homo sapiens, HCT-116, read-out: Cytotoxicity GI50, colon HCT-116, colon, HCT-116, concentration corresponding to 50% growth inhibition
[6] = Homo sapiens, HOP-62, read-out: Cytotoxicity GI50, lung HOP-62, lung, HOP-62, concentration corresponding to 50% growth inhibition
[7] = Homo sapiens, UACC-62, read-out: Cytotoxicity GI50, melanoma UACC-62, melanoma, UACC-62, concentration corresponding to 50% growth inhibition
[8] = Homo sapiens, OVCAR-3, read-out: Cytotoxicity GI50, ovarian OVCAR-3, ovarian, OVCAR-3, concentration corresponding to 50% growth inhibition

| Structure (SMILES) | GI50 (SN12C; [2]) | GI50 (DU-145; [3]) | GI50 (MDA-MB-435; [4]) | GI50 (SF-539) | GI50 (HCT-116; [5]) | GI50 (HOP-62; [6]) | GI50 (UACC-62; [7]) | GI50 (OVCAR-3; [8]) | Top 1 Cleavage (topoisomerase I; Table 1) | MGM (mean GI50 across cell lines) [1] | also measured |
| --- | --- | --- | --- | --- | --- | --- | --- | --- | --- | --- | --- |
| COc1cc2c3c(n(C)c(=O)c2cc1OC)-c1cc2c(cc1C3=O)OCO2 [A, reference compound] | – | – | – | – | – | – | – | – | – | – | GI50 (MDA-MB-435): 96 µM; IC50 [1]: 20 µM |
| CC[C@@]1(O)C(=O)OCc2c1cc1n(c2=O)Cc2cc3ccccc3nc2-1 [B, camptothecin, reference compound] | 0.02 µM | 0.01 µM | 0.04 µM | 0.01 µM | 0.03 µM | 0.01 µM | 0.01 µM | – | – | – | – |
| COc1cc2c3c(n(CCCNCCO)c(=O)c2cc1OC)-c1cc2c(cc1C3=O)OCO2 [C, reference compound] | – | – | – | – | – | – | – | – | – | – | top1-mediated DNA cleavage band at site 37 (topoisomerase I): not seen; top1-mediated DNA cleavage band at site 44 (topoisomerase I): observed |
| COc1cc2c[n+](CCCN)c3c(c2cc1OC)C(=O)c1cc2c(cc1-3)OCO2 [Compound 7ab, 6-(3-Amino-1-propyl)-2,3-dimethoxy-8,9-(methylenedioxy)-1′-oxo-indeno[1,2-c]isoquinolinium Chloride] | – | – | – | – | – | – | – | – | – | – | IC50 [1]: 0.167 µM |
| COc1cc2c(cc1OC)-c1ncc3cc(OC)c(OC)cc3c1C2.Cl [Compound 9aa, 2,3,8,9-Tetramethoxy-11H-indeno[1,2-c]isoquinoline Hydrochloride] | > 50 µM | > 50 µM | > 50 µM | > 50 µM | > 50 µM | – | > 50 µM | > 50 µM | ++ (++, similar activity as compound A) | 44.7 µM | top1-mediated DNA cleavage band at site 37 (topoisomerase I): not seen; top1-mediated DNA cleavage band at site 44 (topoisomerase I): observed |
| COC1=C(OC)Cc2c3c(ncc2=C1)=c1cc2c(cc1=C3)OCO2.Cl [Compound 9ab, 2,3-Dimethoxy-8,9-methylenedioxy-1H-indeno[1,2-c]isoquinoline Hydrochloride] | > 100 µM | 0.0281 µM | < 0.01 µM | < 0.01 µM | > 100 µM | 0.0721 µM | < 0.01 µM | – | +++ (+++ and ++++, greater activity than compound A) | 0.0505 µM | top1-mediated DNA cleavage band at site 37 (topoisomerase I): not seen; top1-mediated DNA cleavage band at site 44 (topoisomerase I): observed |
| COc1cc2c(cc1OC)-c1ncc3cc4c(cc3c1C2)OCO4.Cl [Compound 9ba, 8,9-Dimethoxy-2,3-methylenedioxy-11H-indeno [1,2-c]isoquinoline hydrochloride] | > 100 µM | 25.3 µM | 63.4 µM | 23.4 µM | 11.1 µM | – | > 100 µM | 61.2 µM | +++ (+++ and ++++, greater activity than compound A) | 33.9 µM | top1-mediated DNA cleavage band at site 37 (topoisomerase I): not seen; top1-mediated DNA cleavage band at site 44 (topoisomerase I): observed |
| Cl.c1c2c(cc3c1OCO3)-c1ncc3cc4c(cc3c1C2)OCO4 [Compound 9bb, 2,3-Methylenedioxy-8,9-methylenedioxy-11H-indeno[1,2-c]isoquinoline Hydrochloride] | 0.0414 µM | – | < 0.01 µM | 0.598 µM | 0.283 µM | 0.227 µM | 0.19 µM | 0.0232 µM | ++ (++, similar activity as compound A) | 0.272 µM | – |
| COc1cc2c(c(OC)c1OC)-c1ncc3cc4c(cc3c1C2)OCO4.Cl [Compound 9bc, 7,8,9-Trimethoxy-2,3-methylenedioxy-11H-indeno[1,2-c]isoquinoline Hydrochloride] | 13.4 µM | 23.2 µM | 13.2 µM | – | 18.8 µM | 21.7 µM | 19.3 µM | 15.5 µM | 0 (0, no activity) | 20.9 µM | – |
| COc1cc2c(cc1OC)-c1ncc3cc(OC)c(OC)c(OC)c3c1C2.Cl [Compound 9ca, 1,2,3,8,9-Pentamethoxy-11H-indeno[1,2-c]isoquinoline Hydrochloride] | 14.4 µM | 21.7 µM | 16.2 µM | 14 µM | 31.8 µM | 34.8 µM | 7.42 µM | 15.9 µM | – | 19.1 µM | Top 1 Cleavage (topoisomerase I; Table 2): + (+, weak activity) |
| COc1cc2c(c(OC)c1OC)-c1ncc3cc(OC)c(OC)c(OC)c3c1C2.Cl [Compound 9cc, 1,2,3,7,8,9-Hexamethoxy-11H-indeno[1,2-c]isoquinoline Hydrochloride] | 17.6 µM | 26.6 µM | 20.8 µM | – | 33.5 µM | 35.4 µM | 17.4 µM | 19.1 µM | – | 24 µM | Top 1 Cleavage (topoisomerase I; Table 2, Hydrochloride): 0 (0, no activity) |
| COc1ccc(OC)c2c3c(ncc12)-c1cc2c(cc1C3)OCO2.Cl [Compound 9db, 1,4-Dimethoxy-8,9-methylenedioxy-11H-indeno[1,2-c]isoquinoline Hydrochloride] | > 100 µM | 48.4 µM | > 100 µM | – | 0.249 µM | < 0.01 µM | > 100 µM | 26.9 µM | – | 24.5 µM | Top 1 Cleavage (topoisomerase I; Table 2): ++ (++, similar activity as compound A) |
| COc1ccc2c(c1OC)-c1ncc3cc(OC)c(OC)c(OC)c3c1C2.Cl [Compound 9ea, 1,2,3,7,8-Pentamethoxy-11H-indeno[1,2-c]isoquinoline Hydrochloride] | – | – | – | – | 8.81 µM | 16 µM | 3.84 µM | 0.529 µM | – | 13.2 µM | Top 1 Cleavage (topoisomerase I; Table 2): ++ (++, similar activity as compound A) |
| COc1cc2cnc3c(c2c(OC)c1OC)Cc1ccc2c(c1-3)OCO2.Cl [Compound 9eb, 1,2,3-Trimethoxy-7,8-methylenedioxy-11H-indeno[1,2-c]isoquinoline Hydrochloride] | – | 26.9 µM | > 100 µM | – | 22.1 µM | – | 22.4 µM | – | – | 26.3 µM | Top 1 Cleavage (topoisomerase I; Table 2): ++ (++, similar activity as compound A) |
| COc1cc2c(c(OC)c1OC)-c1ncc3cc(OC)c(OC)c(OC)c3c1C2.Cl [Compound 9ec, 1,2,3,7,8,9-Hexamethoxy-11H-indeno[1,2-c]isoquinoline Hydrochloride] | – | – | – | – | – | – | – | – | – | – | GI50 (SN12C; human): 20.3 µM; GI50 (DU-145; human): 29.6 µM; GI50 (OVCAR-3; human): 21.5 µM; GI50 (MDA-MB-435; human): 23 µM; Top 1 Cleavage (topoisomerase I; Table 2, Hydrochloride): ++ (++, similar activity as compound A); IC50 ([1]; Hydrochloride): 26.3 µM; GI50 (HCT-116; human): 27.8 µM; GI50 (HOP-62; human): 28.5 µM; GI50 (UACC-62; human): 21.1 µM |
